In patent US20080200531A1, “CDKI pathway inhibitors as inhibitors of tumor cell growth” (priority 2006, published 2008):

How the values were obtained:
[1] = system: human colon (HCT116) cancer xenografts; experiment: Therapeutic Dose Study in nude mice bearing HCT116 xenografts; format: in vivo; conditions: 70 mg/kg intra-tumorally; for decrease in the tumor size on day 31 relative to the control / mice that died or were sacrificed by day 31: 9 injections over three weeks; for mice that died or were sacrificed by day 31: groups of 10, control 60%; for P, decrease in the tumor size on day 31 relative to the control: 9 injections, paired two-tailed t-test, dead or sacrificed mice taken as 2000 mm^3
Method: Male NCr nude mice, aged approximately 6-8 weeks were used for the study, which was carried out as a service by Taconic Biotechnology, Rensselaer, N.Y. Animals were maintained under virus free barrier conditions with continuous health monitoring. The administration of test materials, all data collection and disposal of study animals was in compliance with all relevant Taconic Biotechnology Standard Operating Procedures as well as The Guide for the Care and Use of Laboratory Animals. Study animals were observed upon arrival and daily throughout the study for overall health, behavior and morbidity. Test animals were subject to body weight measurement to determine dosage volumes of test articles.
With this information, we then carried out the Therapeutic Dose Study of SNX9 and SNX9-1, in nude mice bearing established human colon (HCT116) cancer xenografts. HCT116 was from American Type Culture Collection (ATCC); ATCC information was referenced for the cryopreservation and growing of the cells. The cells were injected at 5×10^6 subcutaneously in the intra-scapular region. The tumor dimensions were measured using vernier calipers. To approximate the subcutaneous tumor size, the calipers were compressed on the skin slightly but not so tightly as to grip the subcutaneous mass. The maximal dimension of the tumor was recorded as L. The dimension perpendicular to L was recorded as W. The formula: Volume=0.5*L*W^2 was used. Eight days following tumor cell injection into the intra-scapular region, when all the tumor inoculi became palpable, groups of 10 mice were treated for 21 days with PBS (control), SNX9 or SNX9-1 (each at 70 mg/kg), dissolved as in the Range Finder Study.
The compounds were injected intra-tumorally three times a week, on alternating days, for a total of 9 injections per animal over three weeks. Mice were sacrificed when tumor size exceeded 2000 mm^3. […] By day 31 (2 days after the end of treatment), 6 of 10 mice in the control group (60%) died or were sacrificed, as compared to 40% of the mice in SNX9-treated group and only 10% of the mice in SNX9-1 treated group. Statistical analysis of differences in the tumor size on day 31 was carried out using paired two-tailed t-test; for this analysis, the tumor volume of all the mice that died or were sacrificed before day 31 was assumed to be 2000 mm^3.

[2] = target: T1, CDK6/cyclinD3 (h) (Homo sapiens, UniProt Q00534); experiment: Cyclin/CDK kinase assay (Upstate), CDK6/cyclinD3; format: biochemical; conditions: 100 μM, re-tested at 20 and 40 μM (SNX9, SNX2) or 10 and 20 μM (SNX9-1, SNX14)
T1 construct: purchased Upstate Biotechnology, Inc
T1 sequence (Q00534 whole entry): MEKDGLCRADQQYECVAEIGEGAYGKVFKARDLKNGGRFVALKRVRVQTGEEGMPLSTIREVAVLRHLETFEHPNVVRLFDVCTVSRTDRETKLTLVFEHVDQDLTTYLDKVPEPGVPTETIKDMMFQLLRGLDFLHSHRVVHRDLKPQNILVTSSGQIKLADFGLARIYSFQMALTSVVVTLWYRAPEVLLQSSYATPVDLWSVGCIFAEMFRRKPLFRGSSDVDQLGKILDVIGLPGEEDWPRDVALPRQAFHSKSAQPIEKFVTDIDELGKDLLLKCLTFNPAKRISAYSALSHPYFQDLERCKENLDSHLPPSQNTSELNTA
T1 sequence (P30281 whole entry partner): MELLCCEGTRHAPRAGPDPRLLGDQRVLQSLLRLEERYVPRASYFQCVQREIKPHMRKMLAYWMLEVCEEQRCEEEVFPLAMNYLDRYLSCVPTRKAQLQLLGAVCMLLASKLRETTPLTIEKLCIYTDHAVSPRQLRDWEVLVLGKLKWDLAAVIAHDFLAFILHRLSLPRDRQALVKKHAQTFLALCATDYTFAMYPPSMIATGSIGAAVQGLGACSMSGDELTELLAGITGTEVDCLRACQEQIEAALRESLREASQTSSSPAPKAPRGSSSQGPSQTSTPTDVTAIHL
Method: (§1) To test the above hypothesis, we determined whether several CDKI pathway inhibitors, including two SNX9 class compounds (SNX9 and SNX9-1), two compounds of a different structural class (SNX14 and SNX2) and another unrelated inhibitor (SNX35), inhibit the kinase activity of different complexes formed in vitro by purified cyclin/CDK complexes. This analysis was carried out as a service by Upstate Biotechnology, Inc.
(§2) In a final reaction volume of 25 μl, CDK6/cyclinD3 (h) (5-10 mU) is incubated with 8 mM MOPS pH 7.0, 0.2 mm EDTA, 0.1 mg/ml H1, 10 mM MgAcetate and [γ-33P-ATP] (specific activity approx. 500 cpm/pmol, 200 μM concentration). The reaction is initiated by the addition of the MgATP mix. After incubation for 40 minutes at room temperature, the reaction is stopped by the addition of 5 μl of a 3% phosphoric acid solution. 10 μl of the reaction is then spotted onto a P30 filtermat and washed three times for 5 minutes in 75 mM phosphoric acid and once in methanol prior to drying and scintillation counting.
(§3) At the first step, all the compounds were tested at 100 μM concentration. […] For SNX14 and SNX2, the relative efficacy of inhibition was CDK1>CDK2˜CDK3>CDK6. For SNX9 and SNX9-1, the order was CDK3>CDK1>CDK2>CDK6 (FIG. 12).

[3] = system: CDKI-responsive endogenous genes induced by p21; experiment: Q-PCR of CDKI-responsive endogenous genes, HT1080 cells with IPTG-inducible p21; format: cell-based, human; conditions: 10 μM SNX9, 20 μM SNX9-1; normalized to β-actin
Method: For this purpose, we developed real-time RT-PCR (Q-PCR) assays for measuring RNA levels of eleven CDKI-responsive genes. This assay uses a 96-well TurboCapture RNA extraction kit (Qiagen), in which oligo(dT) is covalently bound to the surface of the wells to allow mRNA isolation from cell lysate and cDNA synthesis in the same wells. 5 units/μl of SuperScript III reverse transcriptase (Invitrogen) was added to the wells for 1 hr for cDNA synthesis at 50° C., and 2 μl of the resulting cDNA was then used for Q-PCR analysis using SYBR Green PCR Master Mix (ABI) with ABI 7900HT Q-PCR machine.
This effect argues that the molecular target of these compounds is not a specific CDKI but rather a common downstream mediator of the transcription-inducing effects of different CDKI.

[4] = target: T2, CDK3/cyclinE (h) (Homo sapiens, UniProt Q00526); experiment: Cyclin/CDK kinase assay (Upstate), CDK3/cyclinE; format: biochemical; conditions: 100 μM, re-tested at 20 and 40 μM (SNX9, SNX2) or 10 and 20 μM (SNX9-1, SNX14)
T2 construct: purchased Upstate Biotechnology, Inc
T2 sequence (Q00526 whole entry): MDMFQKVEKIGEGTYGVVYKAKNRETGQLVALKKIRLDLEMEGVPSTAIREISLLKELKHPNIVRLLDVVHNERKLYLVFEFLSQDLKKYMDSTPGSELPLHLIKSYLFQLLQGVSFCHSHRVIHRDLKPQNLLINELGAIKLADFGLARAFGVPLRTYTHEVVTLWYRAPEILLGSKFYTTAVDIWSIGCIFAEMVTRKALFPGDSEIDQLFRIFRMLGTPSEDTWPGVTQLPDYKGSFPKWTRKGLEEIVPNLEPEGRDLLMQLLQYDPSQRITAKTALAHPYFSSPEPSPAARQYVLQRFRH
T2 sequence (P24864 whole entry partner): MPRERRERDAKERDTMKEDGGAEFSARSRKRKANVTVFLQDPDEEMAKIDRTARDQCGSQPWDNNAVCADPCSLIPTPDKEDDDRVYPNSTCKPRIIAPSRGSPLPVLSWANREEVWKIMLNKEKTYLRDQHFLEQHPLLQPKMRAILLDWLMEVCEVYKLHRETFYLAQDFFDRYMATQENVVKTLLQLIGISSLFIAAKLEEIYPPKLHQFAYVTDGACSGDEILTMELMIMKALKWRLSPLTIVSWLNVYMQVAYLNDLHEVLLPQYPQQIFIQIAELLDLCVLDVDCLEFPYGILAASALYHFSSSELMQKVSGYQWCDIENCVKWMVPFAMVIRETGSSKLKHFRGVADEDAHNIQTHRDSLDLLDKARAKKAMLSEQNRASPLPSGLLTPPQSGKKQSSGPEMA
Method: as §1
as §2, with “CDK3/cyclinE” for “CDK6/cyclinD3”, “mM” for “mm”
as §3

| Structure (SMILES) | decrease in the tumor size on day 31 relative to the control [1] | mice that died or were sacrificed by day 31 [1] | P, decrease in the tumor size on day 31 relative to the control [1] | kinase activity of CDK6 [2] | induction of CDKI-responsive endogenous genes by p21 (ratio of RNA levels with and without IPTG) [3] | kinase activity of CDK3 [4] |
| --- | --- | --- | --- | --- | --- | --- |
| NCCc1c[nH]c2c(Cl)cc(Cl)cc12 [SNX9-1] | highly significant | 10% | < 0.01 | inhibited the kinase activities | partially inhibit the induction of all the tested genes | inhibited the kinase activities |
| Cc1[nH]c2c(Cl)cccc2c1CCN [SNX9] | did not reach statistical significance | 40% | < 0.3 | inhibited the kinase activities | partially inhibit the induction of all the tested genes | inhibited the kinase activities |
